Measured values as given in article PMC10452181, “Synthesis and Biological Evaluation of Cyclobutane-Based β3 Integrin Antagonists: A Novel Approach to Targeting Integrins for Cancer Therapy” (Cancers, 2023).

Assays:
[1] = molecular target: T1, αvβ3 (Homo sapiens, UniProt P05106+P06756); assay: Sk-Mel-2 cell adhesion to immobilised fibronectin (cell-binding assay, MTT readout); assay type: cell-based; conditions: Sk-Mel-2 adhesion to Fn, mean ± SD
T1 construct: endogenous in cells; host or cells: SK-Mel-2 melanoma cells
Experimental: First, 96-well plates (Corning, VWR) were coated overnight at 4 °C with 0.5 μg/well fibronectin (Sigma). SK-Mel-2 cells were trypsinised, washed and resuspended in RPMI medium only at 10^5 cells/mL. Cells (100 µL/well) were treated with compound (DMSO final concentration 0.1%) at the indicated concentration for 4 hrs on a rotary shaker. Plates were washed (3 × PBS) and blocked with PBS/5% BSA for 2 hrs at 37 °C prior to adding the cells. Cells were incubated on the plates at 37 °C in a humidified chamber with 5% CO2 for 1 hr. The plates were washed 3× with PBS and a 200 µL/well RPMI medium containing 10% FCS added. The plates were incubated overnight at 37 °C as above. Finally, 0.5 mg/mL of 3-(4,5-dimethythiazol-2-yl)-2,5-diphenyl tetrazolium bromide (MTT) was added to each well and the plates incubated for a further 4 h. The medium was removed, and the insoluble formazan dissolved in 150 µL of DMSO. Absorbance was measured at 540 nm using a Thermo Multiskan EX (Thermofisher, UK)and Ascent Software (v2.6). Total binding was determined based on controls lacking any compounds (100% binding) in fibronectin-coated wells and uncoated wells blocked with BSA (0% binding) and corrected for background (no cells, fibronectin-coated).
As an initial test of anti-β3 activity, the ability of compounds to inhibit the adhesion of melanoma cells expressing high levels of αvβ3 and low levels of other RGD-binding integrins such as αvβ5 and α5β1 to immobilised fibronectin was evaluated.
Cells were seeded onto precoated plates in the presence or absence of putative antagonists and the number of adherent cells quantified colorimetrically.

[2] = tested on: Sk-Mel-2; assay: in vitro; assay type: cell-based, human
Experimental: Before use in cell-based assays of integrin function, the effect of compounds on cell proliferation was tested using the MTT assay to avoid adhesion results being confounded by cell death (Supplementary Table S1). The effect of compounds on cell adhesion was then initially tested at a single, nontoxic concentration to identify active antagonists for further characterisation; those displaying a promising activity in the adhesion assay were tested at a wider range of concentrations to determine the IC50 (Table 2). […] Nevertheless, it is a cost-effective initial screening method. page 4: Table S1. Cytotoxicity of compounds on the cell lines used in the functional assays (measured by MTT assay). Cells (2000 cells/well for Sk-Mel-2; 1 x 10^4 cells/mL for M14) were incubated for 96 hours at 37 ° C in a total volume of 200 μL/well (180 μL medium + 20 μ L test compound solution). After 96 hours, the medium was replaced by fresh medium containing 0.5 mg/ml (end conc.) MTT per well, incubated for 4 h then the plate processed and read as described in the main text. […] ICT9053 41 naphthyridine 1 NHSO2Mes H Ester 52.6 ± 0.6 72.7 ± 9.8 ICT9065 42 naphthyridine 1 H H Ester >100 - ICT9079 43 naphthyridine 0 NHSO2Mes H Ester ~100 - ICT9061 44 naphthyridineT 1 NHSO2Mes H Ester 46.8 ± 10.7 - […] Ester 65.4 ± 11.1 >100 […] Ester 9.6 ± 5.7 >100 […] Ester >100 - […] Ester 54.6 ± 11.0 - […] Ester >5 3.3 ± 0.8 […] ICT9028 51 pyrimidine 2 NHSO2Ph H Acid >100 - ICT9031 52 pyrimidineT 1 NHSO2Mes H Acid >100 - ICT9090 53 pyrimidineT 2 NHSO2Mes H Acid >50 - ICT9029 54 pyrimidineT 2 NHSO2Ph H Acid >100 - ICT9063 55 naphthyridine 1 NHSO2Mes H Acid 61.7 ± 2.8 - […] Acid 45.5 ± 7.9 >100 […] 42.5 ± 1.8 >50 RGDS >50 - T trans configuration of cyclobutane sidechains.

[3] = molecular target: T2, αIIbβ3 (Homo sapiens, UniProt P05106+P08514); assay: αIIbβ3/fibrinogen purified protein binding ELISA; conditions: mean ± SD; for IC50: read-out: IC50 (αIIbβ3/Fg)
T2 construct: purchased Sigma
Experimental: ELISA assays were performed as previously described with minor modifications. Briefly, serial dilutions of compounds were prepared in dimethyl sulfoxide (DMSO). C8 Maxi Immuno modules (Fisher Scientific) were incubated overnight at 4 °C with 0.5 μg/well of fibrinogen (Sigma) in sterile phosphate buffered saline (PBS, 0.2 g/L KCl, 8.0 g/L NaCl, 0.2 KH2PO4, 1.15 g/L Na2HPO4, pH 7.4). All subsequent wash steps were performed using 25 mM Tris, pH 7.6, 150 mM NaCl, 1 mM MnCl2, 1 mg/mL BSA, and binding/inhibition was carried out in 25 mM Tris, pH 7.6, 150 mM NaCl, 1 mM MnCl2, 1 mM MgCl2, 1 mM CaCl2, 1 mg/mL BSA.
Wells were washed and blocked with a blocking solution (PBS, 0.1% Tween 20, 3% BSA) for 1 h at 37 °C. Compounds were added to the wells at indicated concentrations (final 0.5% DMSO) in the presence of 0.5 µg/well αIIbβ3 (Sigma) and incubated at room temp for 1 h. After 3 washes, primary anti-αIIb (1:200 dilution, Santa Cruz Biotech, Heidelberg, Germany) and antigoat–HRP (1:500 dilution, Dako, Agilent, Santa Clara, CA, USA) were added at room temp for 1 h. The wells were washed and incubated with 0.1 mg/mL tetra-methylbenzidine (Sigma) for 25 min and the reaction was stopped with 1N H2SO4 (100 μL/well). The absorbance was measured at 450 nm using a Multiscan Spectrum reader (Thermo Scientific, Thermofisher, UK) and SkanIT RE (v2.4.4.5) software. Results were plotted as percent binding vs. log concentration and IC50 values determined.

T1 sequence (P06756 31-889 limits assumed): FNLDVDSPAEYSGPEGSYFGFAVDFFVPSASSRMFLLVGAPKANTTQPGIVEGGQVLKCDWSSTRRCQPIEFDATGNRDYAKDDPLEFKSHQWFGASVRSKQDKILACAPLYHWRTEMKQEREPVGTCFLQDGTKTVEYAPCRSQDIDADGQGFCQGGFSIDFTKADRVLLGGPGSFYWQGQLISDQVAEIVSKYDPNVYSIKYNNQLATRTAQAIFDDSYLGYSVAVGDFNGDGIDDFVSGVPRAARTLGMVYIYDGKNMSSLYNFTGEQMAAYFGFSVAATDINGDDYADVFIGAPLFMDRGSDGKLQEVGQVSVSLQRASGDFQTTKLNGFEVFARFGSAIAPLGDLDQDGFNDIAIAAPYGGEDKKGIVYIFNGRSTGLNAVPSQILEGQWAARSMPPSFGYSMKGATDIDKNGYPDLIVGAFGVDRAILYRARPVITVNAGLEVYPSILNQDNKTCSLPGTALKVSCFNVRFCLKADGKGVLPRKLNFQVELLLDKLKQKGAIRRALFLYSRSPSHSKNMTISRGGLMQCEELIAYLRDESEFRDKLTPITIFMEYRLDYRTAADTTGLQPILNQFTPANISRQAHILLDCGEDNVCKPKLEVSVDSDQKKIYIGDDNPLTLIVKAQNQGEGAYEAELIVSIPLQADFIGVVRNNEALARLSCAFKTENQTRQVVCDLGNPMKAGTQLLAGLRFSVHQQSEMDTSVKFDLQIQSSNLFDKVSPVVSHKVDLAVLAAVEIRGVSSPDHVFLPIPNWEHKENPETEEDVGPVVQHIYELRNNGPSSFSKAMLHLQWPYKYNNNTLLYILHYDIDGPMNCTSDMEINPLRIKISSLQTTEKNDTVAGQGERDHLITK
T1 sequence (P06756 891-1048 partner limits assumed): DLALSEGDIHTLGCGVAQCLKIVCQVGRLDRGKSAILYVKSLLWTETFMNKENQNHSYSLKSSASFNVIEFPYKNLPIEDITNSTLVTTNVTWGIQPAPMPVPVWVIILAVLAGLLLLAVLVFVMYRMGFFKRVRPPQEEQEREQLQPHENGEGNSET
T1 sequence (P05106 27-788): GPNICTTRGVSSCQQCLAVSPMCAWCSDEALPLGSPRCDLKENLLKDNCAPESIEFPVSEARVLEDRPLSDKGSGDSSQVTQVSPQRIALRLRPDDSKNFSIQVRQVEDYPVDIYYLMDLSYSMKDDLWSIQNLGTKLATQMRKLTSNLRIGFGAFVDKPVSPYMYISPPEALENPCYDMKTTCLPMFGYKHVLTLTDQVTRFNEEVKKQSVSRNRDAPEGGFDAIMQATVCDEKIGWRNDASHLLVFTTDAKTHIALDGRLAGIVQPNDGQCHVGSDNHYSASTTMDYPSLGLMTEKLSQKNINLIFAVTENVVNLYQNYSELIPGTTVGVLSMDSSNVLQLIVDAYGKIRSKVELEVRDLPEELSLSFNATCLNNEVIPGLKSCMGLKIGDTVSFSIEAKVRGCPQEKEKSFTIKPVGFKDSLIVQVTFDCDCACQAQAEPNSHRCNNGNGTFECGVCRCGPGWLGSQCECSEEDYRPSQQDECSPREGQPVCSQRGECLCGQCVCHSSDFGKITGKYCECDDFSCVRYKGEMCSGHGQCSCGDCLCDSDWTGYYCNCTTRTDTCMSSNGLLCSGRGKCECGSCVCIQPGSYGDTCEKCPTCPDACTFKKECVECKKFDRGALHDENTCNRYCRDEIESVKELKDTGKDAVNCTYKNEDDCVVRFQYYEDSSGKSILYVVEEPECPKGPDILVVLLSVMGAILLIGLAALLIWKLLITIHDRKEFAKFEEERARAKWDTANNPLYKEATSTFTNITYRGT
T2 sequence (P08514 32-887 limits assumed): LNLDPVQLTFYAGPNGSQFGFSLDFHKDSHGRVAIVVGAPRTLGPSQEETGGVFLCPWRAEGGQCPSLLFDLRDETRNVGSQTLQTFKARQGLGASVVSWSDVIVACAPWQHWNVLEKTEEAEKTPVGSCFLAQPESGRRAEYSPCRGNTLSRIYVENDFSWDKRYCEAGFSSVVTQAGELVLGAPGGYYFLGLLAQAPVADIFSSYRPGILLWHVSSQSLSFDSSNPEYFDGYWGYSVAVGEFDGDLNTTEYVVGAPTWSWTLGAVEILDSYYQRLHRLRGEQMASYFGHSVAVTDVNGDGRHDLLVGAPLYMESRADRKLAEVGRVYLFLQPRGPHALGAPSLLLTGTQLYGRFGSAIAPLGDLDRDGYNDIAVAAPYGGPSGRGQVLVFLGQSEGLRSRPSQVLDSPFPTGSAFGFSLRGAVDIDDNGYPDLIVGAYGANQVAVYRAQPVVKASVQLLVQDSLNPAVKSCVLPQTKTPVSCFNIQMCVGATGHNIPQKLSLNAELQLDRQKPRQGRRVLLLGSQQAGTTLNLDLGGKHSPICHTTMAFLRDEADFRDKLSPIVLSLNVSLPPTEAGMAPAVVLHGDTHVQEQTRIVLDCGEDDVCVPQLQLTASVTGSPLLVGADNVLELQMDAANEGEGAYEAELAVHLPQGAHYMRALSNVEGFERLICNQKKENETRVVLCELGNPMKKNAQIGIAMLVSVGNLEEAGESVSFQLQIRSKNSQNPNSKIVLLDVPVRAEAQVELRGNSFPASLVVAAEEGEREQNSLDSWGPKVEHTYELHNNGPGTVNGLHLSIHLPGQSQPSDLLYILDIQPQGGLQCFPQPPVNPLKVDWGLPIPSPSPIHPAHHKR
T2 sequence (P08514 891-1039 partner limits assumed): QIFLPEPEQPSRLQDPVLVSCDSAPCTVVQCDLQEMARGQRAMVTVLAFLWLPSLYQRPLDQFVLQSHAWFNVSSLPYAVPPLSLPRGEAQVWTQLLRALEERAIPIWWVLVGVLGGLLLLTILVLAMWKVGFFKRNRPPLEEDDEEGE
T2 sequence (P05106 27-788): as the sequence (P05106 27-788) above

`COC(=O)[C@H](CNC(=O)C1CC(Cc2ccc3cccnc3n2)C1)NS(=O)(=O)c1c(C)cc(C)cc1C` (stereo partly drawn) [ICT9079 43, (S)-methyl 3-((1s,3r)-3-((1,8-naphthyridin-2-yl)methyl)cyclobutanecarboxamido)-2-(2,4,6-trimethylphenylsulfonamido)propanoate] was tested. Which “Adhesion % Inhibition @ 5 μM” value [1] did it give?
The value was 33.5 ± 26.2%.

And the IC50 [2]?
Its IC50 is ~100 µM.

`COC(=O)[C@H](CNC(=O)[C@H]1C[C@H](CCNc2ncccn2)C1)NS(=O)(=O)c1c(C)cc(C)cc1C` [ICT9024 27, (S)-methyl 3-((1r,3s)-3-(2-(pyrimidin-2-ylamino)ethyl)cyclobutanecarboxamido)-2-(2,4,6-trimethylphenylsulfonamido)propanoate] was tested. Which “Adhesion % Inhibition @ 5 μM” value [1] did it give?
The value was 39.4 ± 17.1%.

And the “Adhesion % Inhibition @ 50 μM” value [1]?
Its value is 94.2 ± 4.1%.

What about the IC50 [1] of the same compound?
The IC50 was 13 ± 3 µM.

And the “% Inhibition (αIIbβ3/Fg) @ 50 μM” value [3]?
Its value is 33.5 ± 2.8%.

What about the IC50 [3] of the same compound?
The IC50 was 50 ± 5 µM.

What about the IC50 [2] of the same compound?
The IC50 was 55.9 ± 4.9 µM.

With `COC(=O)[C@H](CNC(=O)C1CC(CCc2ccc3cccnc3n2)C1)NS(=O)(=O)c1c(C)cc(C)cc1C` (stereo partly drawn) [ICT9061 44, (S)-methyl 3-((1s,3s)-3-(2-(1,8-naphthyridin-2-yl)ethyl)cyclobutanecarboxamido)-2-(2,4,6-trimethylphenylsulfonamido)propanoate] as the compound, how does the “Adhesion % Inhibition @ 5 μM” value [1] read?
The value was 32.4 ± 16.1%.

What about the IC50 [2] of the same compound?
Its IC50 is 46.8 ± 10.7 µM.

How did the “Adhesion % Inhibition @ 50 μM” value [1] turn out when `COC(=O)[C@H](CNC(=O)C1CC(CCCNc2ncccn2)C1)NS(=O)(=O)c1ccccc1` (stereo partly drawn) [ICT9023 23, (S)-methyl 2-(phenylsulfonamido)-3-((1r,3r)-3-(3-(pyrimidin-2-ylamino)propyl)cyclobutanecarboxamido)propanoate] was run?
Its value is 7.4 ± 15.1%.

What about the “% Inhibition (αIIbβ3/Fg) @ 50 μM” value [3] of the same compound?
The value was 10.9 ± 15.4%.

And the IC50 [2]?
Its IC50 is > 100 µM.

Which “Adhesion % Inhibition @ 5 μM” value [1] does the source give for `Cc1cc(C)c(S(=O)(=O)N[C@@H](CNC(=O)C2CC(CCNc3ncccn3)C2)C(=O)O)c(C)c1` (stereo partly drawn) [ICT9030 50, (S)-3-((1s,3r)-3-(2-(pyrimidin-2-ylamino)ethyl)cyclobutanecarboxamido)-2-(2,4,6-trimethylphenylsulfonamido)propanoic acid] here?
The value was 4.5 ± 19.6%.

And the “Adhesion % Inhibition @ 50 μM” value [1]?
The value was 51 ± 9.0%.

And the IC50 [1]?
Its IC50 is 50 ± 7 µM.

And the “% Inhibition (αIIbβ3/Fg) @ 50 μM” value [3]?
Its value is 91.2 ± 9.6%.

What about the IC50 [3] of the same compound?
The IC50 was 3.5 ± 1.9 µM.

What about the IC50 [2] of the same compound?
Its IC50 is 90.2 ± 4.3 µM.

`O=C(O)[C@H](CNC(=O)[C@H]1C[C@H](CCCNc2ncccn2)C1)NS(=O)(=O)c1ccccc1` [ICT9028 51, (S)-2-(phenylsulfonamido)-3-((1r,3r)-3-(3-(pyrimidin-2-ylamino)propyl)cyclobutanecarboxamido)propanoic acid] was tested. Which “Adhesion % Inhibition @ 50 μM” value [1] did it give?
Its value is 31.8 ± 10.0%.

What about the IC50 [1] of the same compound?
The IC50 was > 50 µM.

And the “% Inhibition (αIIbβ3/Fg) @ 50 μM” value [3]?
The value was 93.6 ± 2.2%.

What about the IC50 [3] of the same compound?
Its IC50 is 7.8 ± 2.8 µM.

And the IC50 [2]?
Its IC50 is > 100 µM.

Which “Adhesion % Inhibition @ 5 μM” value [1] does the source give for `COC(=O)[C@H](CNC(=O)C1CC(CCc2ccc3cccnc3n2)C1)NS(=O)(=O)c1ccccc1` (stereo partly drawn) [ICT9054 40, (S)-methyl 3-((1r,3r)-3-(2-(1,8-naphthyridin-2-yl)ethyl)cyclobutanecarboxamido)-2-(phenylsulfonamido)propanoate] here?
The value was 48.7 ± 30.6%.

And the IC50 [2]?
Its IC50 is 65.2 ± 1.3 µM.

For `COC(=O)[C@H](CNC(=O)[C@H]1C[C@@H](CCCNc2ncccn2)C1)NS(=O)(=O)c1ccccc1` [ICT9026 29, (S)-methyl 2-(phenylsulfonamido)-3-((1s,3s)-3-(3-(pyrimidin-2-ylamino)propyl)cyclobutanecarboxamido)propanoate], which “% Inhibition (αIIbβ3/Fg) @ 50 μM” value [3] is on record?
Its value is 31.6 ± 10.7%.

What about the IC50 [2] of the same compound?
The IC50 was > 100 µM.

How did the IC50 [2] turn out when `COC(=O)CCNC(=O)C1CC(CCc2ccc3cccnc3n2)C1` (stereo not shown) [ICT9065 42, Methyl 3-((1r,3s)-3-(2-(1,8-naphthyridin-2-yl)ethyl)cyclobutanecarboxamido)propanoate] was run?
Its IC50 is > 100 µM.

For `COC(=O)CCNC(=O)[C@H]1C[C@@H](CCc2ccc3c(n2)NCCC3)C1` [ICT9066 47, Methyl 3-((1r,3s)-3-(2-(5,6,7,8-tetrahydro-1,8-naphthyridin-2-yl)ethyl)cyclobutanecarboxamido)propanoate], which “Adhesion % Inhibition @ 50 μM” value [1] is on record?
Its value is 22.4 ± 29.3%.

What about the IC50 [2] of the same compound?
The IC50 was > 100 µM.

For `COC(=O)[C@H](CNC(=O)C1CC(Cc2ccc3c(n2)NCCC3)C1)NS(=O)(=O)c1c(C)cc(C)cc1C` (stereo partly drawn) [ICT9080 48, (S)-methyl 3-((1s,3r)-3-((5,6,7,8-tetrahydro-1,8-naphthyridin-2-yl)methyl)cyclobutanecarboxamido)-2-(2,4,6-trimethylphenylsulfonamido)propanoate], which “Adhesion % Inhibition @ 5 μM” value [1] is on record?
Its value is 61.5 ± 11.1%.

What about the IC50 [2] of the same compound?
Its IC50 is 54.6 ± 11 µM.

`COC(=O)[C@@H](CNC(=O)[C@H]1C[C@@H](CCCNc2ncccn2)C1)NS(=O)(=O)c1ccccc1` [ICT9021 25, (R)-methyl 2-(phenylsulfonamido)-3-((1r,3s)-3-(3-(pyrimidin-2-ylamino)propyl)cyclobutanecarboxamido)propanoate] was tested. Which “Adhesion % Inhibition @ 50 μM” value [1] did it give?
Its value is 22.2 ± 22.3%.

What about the IC50 [2] of the same compound?
The IC50 was > 100 µM.

How did the “Adhesion % Inhibition @ 5 μM” value [1] turn out when `COC(=O)[C@H](CNC(=O)[C@H]1C[C@@H](CCCNc2ncccn2)C1)NS(=O)(=O)c1c(C)cc(C)cc1C` [ICT9025 28, (S)-methyl 3-((1s,3s)-3-(3-(pyrimidin-2-ylamino)propyl)cyclobutanecarboxamido)-2-(2,4,6-trimethylphenylsulfonamido)propanoate] was run?
The value was 0 ± 19.6%.

And the “Adhesion % Inhibition @ 50 μM” value [1]?
The value was 92.5 ± 8.1%.

And the IC50 [1]?
The IC50 was 38 ± 11 µM.

What about the “% Inhibition (αIIbβ3/Fg) @ 50 μM” value [3] of the same compound?
The value was 35.0 ± 11.3%.

What about the IC50 [3] of the same compound?
Its IC50 is > 100 µM.

What about the IC50 [2] of the same compound?
Its IC50 is 55.3 ± 1.6 µM.

For `O=C(O)[C@H](CNC(=O)[C@H]1C[C@@H](CCCNc2ncccn2)C1)NS(=O)(=O)c1ccccc1` [ICT9029 54, (S)-2-(phenylsulfonamido)-3-((1s,3s)-3-(3-(pyrimidin-2-ylamino)propyl)cyclobutanecarboxamido)propanoic acid], which “Adhesion % Inhibition @ 50 μM” value [1] is on record?
The value was 42.5 ± 14.1%.

And the IC50 [1]?
Its IC50 is > 50 µM.

And the “% Inhibition (αIIbβ3/Fg) @ 50 μM” value [3]?
The value was 100 ± 6%.

What about the IC50 [3] of the same compound?
Its IC50 is 3.3 ± 3.3 µM.

And the IC50 [2]?
Its IC50 is > 100 µM.
